Tested on: T84 cells
Experiment: 2-OG levels in T84 cells
Assay type: cell-based
Conditions: 3 h
Description: T84 cells were cultured in 95% air with 5% CO2 at 37°C in standard media made of DMEM:F-12 supplemented with 10% calf serum, 1% penicillin/streptomycin, and 1% GlutaMAX™ (ThermoFisher Scientific) on 9.6 cm^2 6-well plates (ThermoFisher Scientific). Real-time oxygen sensing was done using the SensorDish Reader from Applikon Biotechnology as described previously with T84 cells plated on 0.33 cm^2 transwell inserts (Corning, 0.4 μm).[12] All MCPA treatments included a 2 h pretreatment with MCPA before treatment with butyrate.
Metabolites Extractions and HPLC-DAD: Cell and colon tissue metabolites were extracted and analyzed as previously described with minor variations.[61],[62] The metabolites were detected by absorption at wavelengths of 210, 254, and 280 nm, with their absorbance spectra and retention times verified by co-injection with authentic standards. Metabolites for HPLC-ESI MS analyses were resuspended in deionized water (pH 7.2).
HPLC-ESI MS: Analyses were performed on an Agilent Technologies 1260 Infinity II LC/MSD iQ with electrospray ionization (ESI) mass detection. Negative ion mass-to-charge ratios (m/z) were scanned from 50 to 500. The metabolite extracts were chromatographed using a Sepax Carbomix column (Pb-Np5:8%, 5 μm, non-porous, 4.6 × 300 mm) (mobile phase A: water; mobile phase B: acetonitrile; column temperature, 75°C). Chromatographic separation was performed using a combination of isocratic and gradient methods, including column washing and equilibration periods at the end (0 min: 100% A, 0.12 mL/min; 60 min: 100% A, 0.12 mL/min; 70 min: 70% A, 0.5 mL/min; 145 min: 70% A, 0.5 mL/min; 150 min: 100% A, 0.5 mL/min; 164 min, 100% A, 0.5 mL/min; 165 min, 100% A, 0.12 mL/min; 170 min, 100% A, 0.12 mL/min).

CCCC(=O)O [Butyrate]
2-OG levels compared to control (10 mM butyrate or 30 μM IOX2): significantly increased
2-OG levels in the presence of MCPA (10 mM butyrate with 1 mM MCPA): significantly increased
